Data: patent US10300176B2, “Catheter lock solution formulations” (Medline Industries, Inc., priority 2013, dated 2019)

Assay: break through pressure or vacuum level after exhaustive drying of lock formulations in simulated silicone catheter tubing
Format: physicochemical
Settings: excipient at approximately 1% by weight
Source text: FIG. 1 is a view of a sphygmomanometer 10 connected to a syringe 12. The sphygmomanometer 10 includes a gauge 14 with a visual display 16 to measure the pressure or vacuum level. The sphygmomanometer 10 and the syringe 12 were used to measure the break through pressure or vacuum level.
Long silicone rubber commercial catheter extension tubing segments spliced together, or a single small bore with a 1.5 mm inner diameter clear, and very soft laboratory silicone rubber tubing of about 15 inch in length were used for evaluation. Formulations of 30% weight per volume (w/v) ethanol and 4% weight per weight (w/w) tri-sodium citrate with candidate biocompatible excipients were prepared and charged into the lumens of simulated catheter tubings and capped with solid plugs. The samples were first dried near a de-humidifier for about 24 hours to allow evaporation of most ethanol before being placed into a clear polycarbonate drying column connected in series with a large Drierite® desiccant column. The columns were also fitted with a gas flow meter and a diaphragm gas pump to provide closed loop gas circulation at about 4 liter per minute (min-1). […] Both the pressure (+) or vacuum (−) levels to cause the liquid or solid plug movement were measured when subjected to actuation movements from a small air filled syringe 12 connected to a sphygmomanometer 10. […]

effectiveness of excipient in words: conditionally acceptable
time free flowing: greater than 7 days
Structure (SMILES): OCC(O)CO [glycerol]
